Data set [1] addresses human inducible NO-synthase (Homo sapiens, UniProt P35228). In words: Measurement of inducible NO-synthase activity ([3H]arginine conversion). The data set is classed as biochemical. Particulars: crude cytosolic fraction containing human inducible NO-synthase; 0.1 μM arginine; 45 to 60 min at 37° C; read-out: Inhibition of iNOS activity [measured as −logIC50 (mol/l)] (converted). The method, then: Measurement of Inducible NO-Synthase Activity
The assay is performed in 96-well microtiter F-plates (Greiner, Frickenhausen, FRG) in a total volume of 100 μl in the presence of 100 nM calmodulin, 226 μM CaCl2, 477 μM MgCl2, 5 μM flavin-adenine-dinucleotide (FAD), 5 μM flavin mononucleotide (FMN), 0.1 mM NADPH, 7 mM glutathione, 10 μM BH4 and 100 mM HEPES pH 7.2. Arginine concentrations are 0.1 μM for enzyme inhibition experiments. 150000 dpm of [^3H]arginine are added to the assay mixture. Enzyme reaction is started by the addition of 4 μg of a crude cytosolic fraction containing human inducible NO-synthase and the reaction mixture is incubated for 45 to 60 min at 37° C. Enzyme reaction is stopped by adding 10 μl of 2M MES-buffer pH 5,0. 50 μl of the incubation mixture are transferred into a MADP N65 filtration microtiter plate (Millipore, Eschborn, FRG) containing already 50 μl of AG-50W-X8 cation exchange resin (Biorad, München, FRG). The resin in the Na loaded form is preequilibrated in water and 70 μl (corresponding to 50 μl dry beads) are pipetted under heavy stirring with a 8 channel pipette into the filtration plate. After pipetting 50 μl of the enzyme reaction mixture onto the filtration plates, the plates are placed on a filtration manifold (Porvair, Shepperton, UK) and the flow through is collected in Pico scintillation plates (Packard, Meriden, Conn.). The resin in the filtration plates is washed with 75 μl of water (1×50 μl and 1×25 μl) which is also collected in the same plate as the sample. The total flow through of 125 μl is mixed with 175 μl of Microscint-40 scintillation cocktail (Packard) and the scintillation plate is sealed with TopSeal P-foil (Packard). Scintillation plates are counted in a szintillation counter.
For the measurement of inducible NO-synthase-inhibiting potencies of compounds increasing concentrations of inhibitors were included into the incubation mixture. IC50-values were calculated from the percent inhibition at given concentrations by nonlinear least square fitting.
The inhibitory values determined for the compounds according to the invention follow from the following table A, in which the compound numbers correspond to the example numbers.

As to `COc1ccnc(CCc2nc3cc(-c4ccc(S(=O)(=O)N(C)C)cc4)cnc3[nH]2)c1` [compound 1, 4-{2-[2-(4-Methoxypyridin-2-yl)ethyl]-3H-imidazo[4,5-b]pyridin-6-yl}-N,N-dimethyl-benzenesulfonamide], the melting point is 217 to 218 °C. For the same compound, the IC50 in data set [1] was 14.8 nM.
For `CCN(CC)S(=O)(=O)c1ccc(-c2cnc3[nH]c(CCc4cc(OC)ccn4)nc3c2)cc1` [compound 2, N,N-Diethyl-4-{2-[2-(4-methoxypyridin-2-yl)ethyl]-3H-imidazo-[4,5-b]pyridin-6-yl}benzenesulfonamide], in that order: 127 to 129 °C and 35.5 nM.
The compound `CNS(=O)(=O)c1ccc(-c2cnc3[nH]c(CCc4cc(OC)ccn4)nc3c2)cc1` [compound 3, 4-{2-[2-(4-Methoxypyridin-2-yl)ethyl]-3H-imidazo[4,5-b]pyridin-6-yl}-N-methyl-benzenesulfonamide] yielded a melting point of 225 to 227 °C. Moreover, in data set [1], the IC50 is 13.8 nM.
The like results for `COc1ccnc(CCc2nc3cc(-c4ccc(S(N)(=O)=O)cc4)cnc3[nH]2)c1` [compound 4, 4-{2-[2-(4-Methoxypyridin-2-yl)ethyl]-3H-imidazo[4,5-b]pyridin-6-yl}-benzenesulfonamide] were, in that order, 216 to 218 °C and 14.8 nM.
For `CCNS(=O)(=O)c1ccc(-c2cnc3[nH]c(CCc4cc(OC)ccn4)nc3c2)cc1` [compound 5, N-Ethyl-4-{2-[2-(4-methoxypyridin-2-yl)ethyl]-3H-imidazo-[4,5-b]pyridin-6-yl}benzenesulfonamide], in that order: 214 to 216 °C and 24 nM.
Regarding `COc1ccnc(CCc2nc3cc(-c4ccc(S(=O)(=O)N(C)C)c(F)c4)cnc3[nH]2)c1` [compound 6, 2-Fluoro-4-{2-[2-(4-methoxypyridin-2-yl)ethyl]-3H-imidazo[4,5-b]pyridin-6-yl}-N,N-dimethyl-benzenesulfonamide], the melting point lay within 211 to 212 °C. Moreover, the IC50 in data set [1] is 21.4 nM.

In general, melting point refers to the temperature, or range, at which the solid turns liquid.
